How the values were obtained:
[1] = biological target: Voltage-gated inwardly rectifying potassium channel KCNH2 (Homo sapiens, UniProt Q12809); experiment: Displacement of [3H]dofetilide from human ERG
Canis familiaris = experiment: AUC in Beagle dog at 0.25 mg/kg, iv; assay type: ADME, organism-based, Canis lupus familiaris, Plasma; parameters: dose 0.25 mg/kg, route intravenous; conditions: in vivo
[2] = Volume of distribution in Beagle dog at 0.25 mg/kg, iv; assay type: ADME, organism-based, Canis lupus familiaris; parameters: dose 0.25 mg/kg, route intravenous; conditions: in vivo, read-out: Vdss
[3] = Half life in Beagle dog at 0.25 mg/kg, iv; assay type: ADME, organism-based, Canis lupus familiaris; parameters: dose 0.25 mg/kg, route intravenous; conditions: in vivo
[4] = Clearance in dog at 1 mg/kg, iv and 1 mg/kg, po; assay type: ADME, organism-based, Canis lupus familiaris; conditions: in vivo
[5] = Volume of distribution in dog at 1 mg/kg, iv and 1 mg/kg, po; assay type: ADME, organism-based, Canis lupus familiaris; conditions: in vivo, read-out: Vdss
[6] = Oral bioavailability in dog at 1 mg/kg, po; assay type: ADME, organism-based, Canis lupus familiaris; conditions: in vivo
[7] = Clearance in rat at 2 mg/kg, iv and 10 mg/kg, po; assay type: ADME, organism-based; conditions: in vivo
[8] = Volume of distribution in rat at 2 mg/kg, iv and 10 mg/kg, po; assay type: ADME, organism-based; conditions: in vivo, read-out: Vdss
[9] = Oral bioavailability in rat at 10 mg/kg, po; assay type: ADME, organism-based; conditions: in vivo
[10] = Clearance in rhesus monkey at 1 mg/kg, iv and 1 mg/kg, po; assay type: ADME, organism-based, Macaca mulatta; conditions: in vivo
[11] = Volume of distribution in rhesus monkey at 1 mg/kg, iv and 1 mg/kg, po; assay type: ADME, organism-based, Macaca mulatta; conditions: in vivo, read-out: Vdss
[12] = Oral bioavailability in rhesus monkey at 1 mg/kg, po; assay type: ADME, organism-based, Macaca mulatta; conditions: in vivo

Sequence of Voltage-gated inwardly rectifying potassium channel KCNH2 (Q12809 whole entry): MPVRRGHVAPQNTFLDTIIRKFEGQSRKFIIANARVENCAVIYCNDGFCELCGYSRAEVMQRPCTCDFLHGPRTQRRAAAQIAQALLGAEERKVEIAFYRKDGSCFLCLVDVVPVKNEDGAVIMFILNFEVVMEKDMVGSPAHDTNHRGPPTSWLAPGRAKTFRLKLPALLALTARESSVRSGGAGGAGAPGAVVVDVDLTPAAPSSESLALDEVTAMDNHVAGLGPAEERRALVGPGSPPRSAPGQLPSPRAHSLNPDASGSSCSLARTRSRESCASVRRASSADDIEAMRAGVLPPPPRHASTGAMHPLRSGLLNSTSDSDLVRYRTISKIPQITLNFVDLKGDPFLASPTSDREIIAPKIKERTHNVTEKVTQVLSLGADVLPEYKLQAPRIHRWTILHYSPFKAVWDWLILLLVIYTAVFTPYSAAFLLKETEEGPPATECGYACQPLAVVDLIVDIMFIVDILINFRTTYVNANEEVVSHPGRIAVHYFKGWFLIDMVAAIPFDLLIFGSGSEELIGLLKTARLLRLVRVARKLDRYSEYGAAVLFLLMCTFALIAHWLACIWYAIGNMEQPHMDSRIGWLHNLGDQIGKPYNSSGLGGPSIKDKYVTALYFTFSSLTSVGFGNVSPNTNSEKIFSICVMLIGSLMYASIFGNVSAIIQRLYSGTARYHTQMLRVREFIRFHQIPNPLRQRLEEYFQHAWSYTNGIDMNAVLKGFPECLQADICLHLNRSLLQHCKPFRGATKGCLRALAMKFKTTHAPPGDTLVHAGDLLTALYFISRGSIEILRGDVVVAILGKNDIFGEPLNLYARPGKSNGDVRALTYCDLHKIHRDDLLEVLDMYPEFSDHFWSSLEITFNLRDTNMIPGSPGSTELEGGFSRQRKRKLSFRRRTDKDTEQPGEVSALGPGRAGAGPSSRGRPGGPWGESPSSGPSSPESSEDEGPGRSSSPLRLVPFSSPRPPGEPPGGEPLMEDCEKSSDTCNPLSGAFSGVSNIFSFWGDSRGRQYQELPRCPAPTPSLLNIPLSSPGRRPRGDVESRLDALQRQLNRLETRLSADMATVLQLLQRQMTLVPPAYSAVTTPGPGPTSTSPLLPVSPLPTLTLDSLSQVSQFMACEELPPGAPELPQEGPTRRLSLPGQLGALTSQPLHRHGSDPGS

Compound | Activity [1] [µM] | AUC (Canis familiaris) [µM·h] | Vd [2] [L/kg] | half-life [3] [h] | other results
N#Cc1cnc(Nc2ccncn2)s1 | 2.932 |  |  |  | 
N#Cc1cnc(Nc2ccnc(N)n2)s1 | > 10 |  |  |  | 
CC(=O)N1CCN(c2cc(Nc3ncc(C#N)s3)ncn2)CC1 | 3.291 |  |  |  | 
N#Cc1cnc(Nc2cc(N3CCCNCC3)ncn2)s1 | 2.951 |  |  |  | 
N#Cc1cnc(Nc2cc(N3CCCC(N)CC3)ncn2)s1 (stereo not given) | 1.012 |  |  |  | 
N#Cc1cnc(Nc2cc(N3CCN(CCN4CCOCC4)CC3)ncn2)s1 | 5 | 10.2 | 2.4 | 10.5 | clearance [4]: 4.11 mL/min/kg; Vd [5]: 2.72 L/kg; bioavailability [6]: 51%; clearance [7]: 38.7 mL/min/kg; Vd [8]: 3.32 L/kg; bioavailability [9]: > 99%; clearance [10]: 22.7 mL/min/kg; Vd [11]: 10.1 L/kg; bioavailability [12]: 54%
N#Cc1cnc(Nc2cc(N3CCN(CCCN4CCOCC4)CC3)ncn2)s1 | 4.003 | 3.08 | 14.8 | 7.97 | 
CN1CCN(c2cc(Nc3ncc(C#N)s3)ncn2)CC1 | 0.923 |  |  |  | 
COCCN1CCN(c2cc(Nc3ncc(C#N)s3)ncn2)CC1 |  | 4.81 | 1.31 | 2 | 
N#Cc1cnc(Nc2cc(N3CCN(CCN4CCCC4)CC3)ncn2)s1 | 0.383 | 6.07 | 14.1 | 23 | 
N#Cc1cnc(Nc2cc(N3CCC(N)CC3)ncn2)s1 | 6.643 | 1.91 | 3.65 | 1.34 | 
N#Cc1cnc(Nc2cc(N)ncn2)s1 | > 10 |  |  |  | 
